The values that follow come from US11840523B2, “IRE1α inhibitors and uses thereof” (The Regents of the University of California, priority 2020, dated 2023).

Structures are written as SMILES.

The target in one assay is dpIRE1α* (Homo sapiens (Human), UniProt O75460). In words: In vitro Kdimer assay (XBP1-mini substrate cleavage) with dpIRE1α*. The note with it: FIG. 4; for fold lowering of Kdimer of dpIRE1α* when kinase domain complexed to ligand: versus apo dpIRE1α*, FIG. 1D. It counts as biochemical. The source says:
(§1) In order to better understand how to achieve an optimal intermediate RNase activation state through engagement of IRE1α's kinase domain, we first established a quantitative in vitro framework for characterizing how ATP-binding site occupancy influences RNase activity. […] This dimeric state-commonly referred to as the “back-to-back” dimer—is characterized by an extensive interface between the kinase and RNase domains of each IRE1α protomer; this dimeric state can be promoted through mass action as IRE1α concentration is raised. […] Furthermore, ligands that occupy the ATP-binding site of the kinase domain can also stimulate IRE1α's RNase activity by promoting dimer formation. We measured the ability of a purified, recombinant kinase/RNase domain construct of IRE1α-called IRE1α* to cleave a FRET-quenched XBP1 RNA mini-substrate as a function of IRE1α* concentration, in order to provide a quantitative metric of IRE1α's dimer affinity (Kdimer) (FIG. 1). […]
IRE1α* or dPIRE1α* was titrated from either 2 μM or 4 μM in two-fold serial dilutions in assay buffer (20 mM Tris, 50 mM sodium chloride, 1 mM MgCl2, 2 mM DTT, 0.05% Triton X-100 (v/v), pH 7.5) and incubated with 50 μM inhibitor for 30 minutes at room temperature. […] Fluorescence was detected on a Perkin Elmer Envision Microplate Reader at excitation and emission wavelengths of 650 nm and 665 nm. Reaction process was monitored real time in 10-second intervals for at least 30 minutes. Initial rates of XBP1-cleavage were determined for each respective IRE1α* of dpIRE1α* concentration. Specific activity was then determined by dividing rate (RFU/s) by the respective IRE1α* of dpIRE1α* used (RFU/s*[IRE1α]). Kdimer values were determined by fitting these values using the non-linear regression ‘one-site total’ binding parameter in GraphPad Prism analysis software.

Assay [1] addresses T1, IRE1α (Homo sapiens (Human), UniProt O75460). In words: In vitro Kdimer assay (XBP1-mini substrate cleavage) with IRE1α*. It counts as biochemical. The note with it: ligand-bound IRE1α*; FIG. 1E, FIG. 5.
From the text: as §1
IRE1α* or dPIRE1α* was titrated from either 2 μM or 4 μM in two-fold serial dilutions in assay buffer (20 mM Tris, 50 mM sodium chloride, 1 mM MgCl2, 2 mM DTT, 0.05% Triton X-100 (v/v), pH 7.5) and incubated with 50 μM inhibitor for 30 minutes at room temperature. […] Fluorescence was detected on a Perkin Elmer Envision Microplate Reader at excitation and emission wavelengths of 650 nm and 665 nm. […]

Assay [2] deals with XBP1 splicing in INS-1 cells. In words: XBP1 splicing in ER-stressed INS-1 cells. It counts as cell-based, rat. Particulars: INS-1 cells treated with brefeldin A or thapsigargin; FIG. 6. How it is done: INS-1s (rat insulinoma beta cells) were grown in RPMI, 10% FBS buffer (v/v), 1 mM sodium pyruvate, 10 mM HEPES, 2 mM glutamine and 50 μM β-mercaptoethanol on Poly-D-Lysine coated tissue culture flasks. IRE1α (murine) was cloned into a pcDNA5/FRT/TO. INS-1 FRT/TO cells were grown following the protocol above. INS-1 FRT/TO cells were transfected with 2 μg IRE1α-pcDNA5/FRT/TO and 2 μg pOG44 using Lipofectamine 2000 (Thermo Fisher). Cell media was exchanged the next day and cells were allowed grow for another day before passaging. Selection was performed using 50 μg/mL Hygromycin-B (Thermo Fisher) over about two weeks until all un-transfected cells have died and colonies have appeared in transfected cells. Stably integrated cells were maintained in RPMI, 10% FBS buffer (v/v), 1 mM sodium pyruvate, 10 mM HEPES, 2 mM glutamine and 50 μM β-mercaptoethanol, […] Hygromycin-B. HEK293 cells were grown in DMEM High Glucose media (Gibco) supplemented with 10% FBS. […]
INS-1 or isogenic IRE1α-overexpressing INS-1 cells were plated onto Poly-D-Lysine coated tissue culture plate and grown for 48 hrs. […] PCR fragments were then digested by PstI, resolved on 3% agarose gels, stained with EtBr and quantified by densitometry using ImageJ (NIH). For standard mRNA detection, generally […] total RNA was reverse transcribed using the QuantiTect Reverse Transcription Kit (QIAGEN). […]

Assay [3] addresses T1, IRE1α. In words: In vitro kinase activity assay (IC50 IRE1α kinase inhibition). It counts as biochemical. On the procedure: A construct containing the cytosolic kinase and RNase domains of human IRE1α (residues 547-977, IRE1α*) was expressed in SF9 insect cells by using the Bac-to-Bac baculovirus expression system (Invitrogen) with a His6 tag at the N-terminus and purified with a nickel-nitriloacetic acid (Qiagen) column. To generate dP-IRE1α*, we removed basal phosphorylation sites by incubating IRE1α* with λ-PPase (New England Biolabs) at a molar ratio of 5:1 (IRE1α*: X-PPase) in 50 mM HEPES pH 7.5, 100 mM NaCl, 1 mM MnCl2, 2 mM dithiothreitol (DTT) and 0.01% Brij 35 detergent (v/v) overnight at 4° C. Dephosphorylation was verified through western blotting using a universal phospho-protein detection agent (biotin-pIMAGO (Tymora Analytical Operations, Cat. No.: FL800) and imaged using a streptavidin-linked fluorophore.
In Vitro Kinase Activity Assay
Inhibitors (initial concentration of 10 or 60 μM, three-fold serial dilutions) were incubated with IRE1α* in cleavage buffer (20 mM HEPES, 0.05% Triton X-100 (v/v), 50 mM KCl, 1 mM MgCl2, 1 mM DTT, pH 7.5) for 30 min, followed by incubation with 10 μCi [γ^32P] ATP(3,000 Ci mmol^−1, PerkinElmer) at 23° C. for 3 hours. Samples were then spotted onto glass fiber paper (Easytab-C Glass Fiber Filter Paper, Perkin Elmer) and washed in twice with 0.5% phosphoric acid and autoradiographed using a GE Typhoon FLA 9000 Imager. Blots were quantitated using ImageQuant software. The percent inhibition was quantified by setting the background (no kinase well) as 0 and standardizing to IRE1α* without compound treatment (IRE1α*+DMSO). Dose-response curves were fit using “one-site fit logIC50” parameter using GraphPad Prism analysis software.
Compound Characterization (IC50 IRE1α Kinase Inhibition)

T1 sequence (O75460 547-977): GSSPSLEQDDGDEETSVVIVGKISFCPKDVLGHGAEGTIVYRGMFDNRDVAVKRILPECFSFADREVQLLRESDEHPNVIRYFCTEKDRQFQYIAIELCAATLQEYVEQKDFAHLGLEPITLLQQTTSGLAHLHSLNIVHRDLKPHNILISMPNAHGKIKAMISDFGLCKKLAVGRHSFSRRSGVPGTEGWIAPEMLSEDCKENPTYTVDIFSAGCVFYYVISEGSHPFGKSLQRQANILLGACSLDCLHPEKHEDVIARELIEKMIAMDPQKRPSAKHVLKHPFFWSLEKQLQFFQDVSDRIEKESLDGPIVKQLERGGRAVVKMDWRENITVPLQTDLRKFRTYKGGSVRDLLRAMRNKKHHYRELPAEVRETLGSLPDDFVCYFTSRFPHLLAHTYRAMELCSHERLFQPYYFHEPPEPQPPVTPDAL
dpIRE1α*, sequence (O75460 547-977): as above

In the case of `O=C(Nc1c[nH]nc1-c1nc2ccc(CN3CCOCC3)cc2[nH]1)NC1CC1` [AT9283], the “fold lowering of Kdimer of dpIRE1α* when kinase domain complexed to ligand” value at dpIRE1α* was “over 80 fold”.

For the molecule `NC(=O)Nc1cc(-c2cccc(F)c2)sc1C(=O)N[C@H]1CCCNC1` [AZD7762], the “formation of the RNase active dimer of dpIRE1α*” value at dpIRE1α* (dpIRE1α*-ligand complex) is “promotes the formation of the RNase active dimer”. In addition, the “fold lowering of Kdimer of dpIRE1α* when kinase domain complexed to ligand” value on dpIRE1α* is recorded as “over 80 fold”. For the same molecule, at IRE1α [1], the “formation of RNase active dimers of IRE1α*” value is “promotes the formation of the RNase active dimer”.

Consider `Cc1ccc2c(NS(=O)(=O)c3ccccc3Cl)cccc2c1Oc1ncccc1-c1ccnc(N[C@H]2CCCNC2)n1` [KIRA8], for which, at IRE1α [1], the “formation of RNase active dimers of IRE1α*” value is reported as “unable to form RNase active dimers at any concentration tested”. The XBP1 splicing result in assay [2] is recorded as “completely suppresses XBP1 splicing”.

`CCc1cc(-c2ccc(NS(=O)(=O)c3ccccc3Cl)nc2OC)cc2cnc(N[C@H]3CC[C@H](N)CC3)nc12` [LBC-0000405]: at IRE1α [3], 5.1 nM corresponded to half-maximal inhibition (IC50). In other words, the single-digit nanomolar range.

`CCc1cc(-c2ccc(NS(=O)(=O)CCC(F)(F)F)nc2OC)cc2cnc(N[C@H]3CC[C@H](N)CC3)nc12` [LBC-0000406, N-(5-(2-(((1r,4r)-4-aminocyclohexyl)amino)-8-ethylquinazolin-6-yl)-6-methoxypyridin-2-yl)-3,3,3-trifluoropropane-1-sulfonamide]: the IC50 (in general, the concentration that gives 50% inhibition) against IRE1α [3] stood at 7.4 nM.

`CCc1cc(-c2ccc(NS(=O)(=O)CC(F)(F)F)nc2OC)cc2cnc(N[C@H]3CC[C@H](N)CC3)nc12` [LBC-0000407, N-(5-(2-(((1r,4r)-4-aminocyclohexyl)amino)-8-ethylquinazolin-6-yl)-6-methoxypyridin-2-yl)-2,2,2-trifluoroethane-1-sulfonamide] had a 50% inhibitory concentration (IC50) against IRE1α [3] of 7.5 nM. The IC50 values of the last two molecules are within 1.5-fold of each other.

In turn, `CCc1cc(-c2ccc(NS(=O)(=O)C3CC3)nc2OC)cc2cnc(N[C@H]3CC[C@H](N)CC3)nc12` [LBC-0000408, N-(5-(2-(((1r,4r)-4-aminocyclohexyl)amino)-8-ethylquinazolin-6-yl)-6-methoxypyridin-2-yl) cyclopropane sulfonamide] gave an IC50 against IRE1α [3] of 5.1 nM.
